Reference: the NIST ThermoML archive (doi:10.1016/j.jct.2014.05.003)
Numbers after ± are expanded uncertainties.

Columns and labels:
[1] = wn = mass fraction of the nth substance listed; settings: 298.15 K, 100 kPa, Liquid, Vibrating tube method
[2] = relative permittivity at zero frequency (dimensionless); wn = mass fraction of the nth substance listed; settings: 298.15 K, 100 kPa, Liquid, Coaxial cylinder capacitor

| mass density ([1]; w1 = 0.1) [kg/m3] | mass density ([1]; w1 = 0.2) [kg/m3] | mass density ([1]; w1 = 0.3) [kg/m3] | relative permittivity at zero frequency ([2]; w1 = 0.1) | relative permittivity at zero frequency ([2]; w1 = 0.2) | relative permittivity at zero frequency ([2]; w1 = 0.3) | Compound |
| --- | --- | --- | --- | --- | --- | --- |
| 995.7 ± 1 | 996.2 ± 1 | 997.3 ± 1 |  |  |  | CC(=O)N(C)C [N,N-dimethylethanamide] + O |
| 996.3 ± 1 | 996.4 ± 1 | 996.9 ± 1 | 76.8 ± 0.2 | 74.6 ± 0.2 | 72.2 ± 0.2 | CN(C)C=O [dimethylformamide] + O |
